According to US20040023972A1, “Use of substituted imidazo[1,2-a]-pyridin-, -pyrimidin-and-pyrazin-3-yl-amine derivatives in the preparation of medicaments for inhibiting NOS” (Gruenenthal GmbH, priority 2000, published 2004):

Target: T1, NO synthase (Rattus norvegicus, UniProt P29476)
T1 construct: the supernatant was then removed by decantation and frozen in portions at −80° C; from tissue; host or cells: rat cerebellum, 20,000 g supernatant of homogenate
Assay: HTS-NOS assay (NOS assay): conversion of radioactive arginine, cation-exchanger filter plate
Type: biochemical
Settings: 10 μM
Procedure: This assay enables the percentage inhibition of NO synthase by an active ingredient to be determined by measuring the NOS activity under the action of the active ingredient. NO synthase is mixed together with radioactively labelled arginine and the active ingredient under suitable conditions. After terminating the NO-forming reaction at a given time, the amount of unconverted arginine is determined directly or indirectly. A comparison of that amount with the amount of arginine that remains in a mixture of NOS and arginine without the addition of active ingredient and under otherwise identical conditions gives the % inhibition of NO synthase by the tested active ingredient. This assay can be carried out as follows:
(a) incubation of NO synthase with labelled arginine as substrate in a reaction vessel,
(b) separation of the labelled arginine from the labelled citrulline optionally formed as a product of the enzymatic reaction, at a time at which the citrulline concentration is increasing,
(c) measurement of the amount of arginine remaining in each case.
Separation is carried out over a filter plate membrane.
This NOS assay is suitable especially for “high throughput screening” (HTS) on microtitre plates (MTP).
In this HTS-NOS assay, radioactive arginine is used as substrate. The assay volume can be chosen in the range from 25 μl to 250 μl, according to the type of microtitre plate (MTP). Depending on the source of the enzyme used, co-factors and co-enzymes are added. Incubation of the batches on this microtitre plate (assay MTP) according to step (a) is carried out at room temperature and is for 5 to 60 minutes according to the enzyme activity used (units). At the end of the incubation (step (a)), the plate is placed into a cell harvester which is equipped with a MTP having a cation-exchanger membrane as the filter base (filter MTP). All batches of the assay MTP are transferred to the filter MTP and filtered off with suction over a cation-exchanger filter plate, a paper filter charged with phosphate groups. The filter MTP is then washed with buffer or water. By means of this procedure, the arginine substrate that remains is bound to the cation exchanger, while the enzymatically formed radioactive citrulline is washed out quantitatively. After drying the filter MTP and adding scintillation liquid, the bound arginine can be counted using a scintillation counter. An uninhibited NOS reaction is reflected in low radioactivity. An inhibited enzyme reaction means that the radioactive arginine has not been converted. This means that a high level of radioactivity is found on the filter.
Rat cerebella were used as the starting tissue. The animals were anaesthetized and sacrificed, the brain tissue, the cerebellum, was removed by dissection, 1 ml of enzyme preparation buffer was added per rat cerebellum (4° C.), and disintegration was carried out using a Polytron homogeniser for 1 minute at 6000 rpm, followed by centrifugation for 15 minutes at 4° C. and 20,000 g; the supernatant was then removed by decantation and frozen in portions at −80° C. (the precipitate was discarded).
96-well MTP having a well capacity of <250 μl were used.
Pipetting sequence: see Table 1.
When the pipetting operation was complete, a cover was placed on the MTP (assay MTP), and incubation was at 25° C. (room temperature (RT)) for from 5 to 60 minutes, according to the amount and activity of the enzyme used.
The contents of the assay MTP were then transferred with the aid of a 96-well cell harvester to a 96-well cation exchanger MTP (filter MTP) and filtered off with suction. This was followed by washing once with […] of H2O (from a bath).
The plate was then dried for 1 hour at 60° C. in a drying cabinet. The underside of the filter MTP was then accurately sealed from beneath with a “back seal”. 35 μl of scintillation fluid per well were then added by means of a pipette. The upper side of the plate was also sealed with a “top seal”. […]

| HTS-NOS assay: % inhibition (10 μM) [%] | SMILES |
| --- | --- |
| 59 | Cc1cc(C)n2c(NC(C)(C)CC(C)(C)C)c(C)nc2c1 [Example 9, (1,1,3,3-Tetramethyl-butyl)-(2,5,7-trimethyl-imidazol[1,2-a]pyridin-3-yl)-amine] |
| 68 | CC(=O)OCc1ccc(-c2nc3cc(C)ccn3c2N(C(C)=O)C2CCCCC2)o1 [Example 167, acetic acid 5-[3-(acetyl-cyclohexyl-amino)-7-methyl-imidazo[1,2-a]pyridin-2-yl]-furan-2-yl methyl ester] |
| 61 | CC(=O)N(c1c(C)cccc1C)c1c(-c2ccccc2C(F)(F)F)nc2ccc(C)cn12 [Example 261, N-(2,6-dimethyl-phenyl)-N-[6-methyl-2-(2-trifluorO-methyl-phenyl)-imidazo[1,2-a]pyridin-3-yl]-acetamide] |

| SMILES | HTS-NOS assay: % inhibition (10 μM) [%] |
| --- | --- |
| [C-]#[N+]CCCCCCNc1c(-c2ccccc2Br)nc2cc(C)cc(C)n12 [Example 92, {6-[2-(2-Bromophenyl)-5,7-dimethyl-imidazo[1,2-a]pyridin-3-ylamino]-hexyl}-methylidyne-ammonium] | 60 |

Same assay, conditions: Table 5; concentration not given; hydrochloride

| NOS assay % inhibition [%] | SMILES |
| --- | --- |
| 54 | Cc1cc(C)n2c(NC3CCCCC3)c(-c3ccoc3)nc2c1.Cl [Example 302, Cyclohexyl-(2-furan-3-yl-5,7-dimethyl-imidazo-[1,2-a]pyridin-3-yl)-amine hydrochloride] |

Same assay, conditions: read-out: HTS-NOS assay: % inhibition (10 μM)

| inhibition at 10 µM [%] | SMILES |
| --- | --- |
| 49 | CCc1ccn2c(Nc3ccc(F)c(Cl)c3)c(-c3cc(C)c(C)o3)nc2c1 [Example 322, (3-Chloro-4-fluorophenyl)-[2-(4,5-dimethyl-furan-2-yl)-7-ethyl-imidazo[1,2-a]pyridin-3-yl]-amine] |
| 56 | CC(=O)N(c1c(-c2ccc(C3OCCO3)o2)nc2cc(C)ccn12)C(C)(C)C [Example 214, N-tert-butyl-N-[2-(5-[1,3]dioxolan-2-yl-furan-2-yl)-7-methyl-imidazo[1,2-a]-pyridin-3-yl]-acetamide] |
| 58 | CC(=O)N(c1c(-c2ccc(C(=O)O)s2)nc2cccc(C)n12)C1CCCCC1 [Example 234, 5-[3-(acetyl-cyclohexyl-amino)-5-methyl-imidazo[1,2-a]pyridin-2-yl]-thiophene-2-carboxylic acid] |
| 51 | CCCCN(C(C)=O)c1c(-c2cccc(O)c2)nc2ncccn12 [Example 284, N-butyl-N-[2-(3-hydroxy-phenyl)-imidazo[1,2-a]pyrimidin-3-yl]-acetamide] |
| 54 | CC(=O)N(c1c(-c2cccc(Cl)c2Cl)nc2ccccn12)C(C)(C)C [Example 227, N-tert-butyl-N-[2-(2,3-dichloro-phenyl)-imidazo[1,2-a]pyridin-3-yl]-acetamide] |
| 67 | CCOc1ccc2ccccc2c1-c1nc2cc(C)ccn2c1N(C(C)=O)C(C)(C)C [Example 290, N-tert-butyl-N-[2-(2-ethoxy-naphthalen-1-yl)-7-methyl-imidazo[1,2-a]pyridin-3-yl]-acetamide] |
| 58 | CSc1ccc(-c2nc3cnccn3c2N(C(C)=O)C(C)(C)CC(C)(C)C)s1 [Example 235, N-[2-(5-methylsulfanyl-thiophen-2-yl)-imidazo[1,2-a]pyrazin-3-yl]-N-(1,1,3,3-tetramethyl-butyl)-acetamide] |

The remaining lines, values behind:

| SMILES | inhibition at 10 µM [%] |
| --- | --- |
| CC(=O)N(c1c(-c2cc3ccccc3c3ccccc23)nc2cc(C)ccn12)C(C)(C)C [Example 208, N-tert-butyl-N-(7-methyl-2-phenanthren-9-yl-imidazo[1,2-a]pyridin-3-yl)-acetamide] | 63 |
| Cc1cc(C)n2c(Nc3c(C)cccc3C)c(-c3ccccc3C)nc2c1 [Example 32, (2,6-Dimethyl-phenyl)-(5,7-dimethyl-2-o-tolyl-imidazo[1,2-a]pyridin-3-yl)-amine] | 59 |
| Cc1cc(C)n2c(NC3CCCCC3)c(C)nc2c1 [Example 35, Cyclohexyl-(2,5,7-trimethyl-imidazo[1,2-a]-pyridin-3-yl)-amine] | 55 |
| Cc1ccc2nc(-c3ccncc3)c(NC(C)(C)CC(C)(C)C)n2c1 [Example 124, (6-Methyl-2-pyridin-4-yl-imidazo[1,2-a]-pyridin-3-yl)-(1,1,3,3-tetramethyl-butyl)-amine] | 68 |
| Cc1ccn2c(NC3CCCCC3)c(-c3ccccc3F)nc2c1 [Example 21, Cyclohexyl-(2-(2-fluoro-phenyl)-7-methyl-imidazo[1,2-a]pyridin-3-yl]-amine] | 53 |
| CC(=O)N(c1c(C)cccc1C)c1c(-c2cccc(Cl)c2Cl)nc2cc(C)ccn12 [Example 160, N-[2-(2,3-dichloro-phenyl)-7-methyl-imidazo[1,2-a]pyridin-3-yl]-N-(2,6-dimethyl-phenyl)-acetamide] | 55 |
| Cc1cccc(C)c1Nc1c(-c2cccc(Cl)c2Cl)nc2c(C)cccn12 [Example 96, [2-(2,3-Dichlorophenyl)-8-methyl-imidazo[1,2-a]pyridin-3-yl]-(2,6-dimethyl-phenyl)-amine] | 55 |
| Cc1cccn2c(NC(C)(C)CC(C)(C)C)c(-c3cc4ccccc4o3)nc12 [Example 115, (2-Benzofuran-2-yl-8-methyl-imidazo[1,2-a]pyridin-3-yl)-(1,1,3,3-tetramethyl-butyl)-amine] | 59 |
| Cc1ccn2c(NC3CCCCC3)c(-c3ccc([N+](=O)[O-])o3)nc2c1 [Example 99, Cyclohexyl-[7-methyl-2-(5-nitro-furan-2-yl)-imidazo[1,2-a]pyridin-3-yl]-amine] | 66 |
| Cc1ccn2c(NC(C)(C)CC(C)(C)C)c(-c3cc4ccccc4o3)nc2c1 [Example 56, (2-Benzofuran-2-yl-7-methyl-imidazo[1,2-a]pyridin-3-yl)-(1,1,3,3-tetramethyl-butyl)-amine] | 60 |
| CC(=O)N(c1c(C)cccc1C)c1c(-c2ccccc2F)nc2cc(C)cc(C)n12 [Example 182, N-(2,6-dimethyl-phenyl)-N-[2-(2-fluoro-phenyl)-5,7-dimethyl-imidazo[1,2-a]-pyridin-3-yl]-acetamide] | 53 |
| CC(=O)N(c1c(-c2ccc(C)o2)nc2cc(C)cc(C)n12)C1CCCCC1 [Example 170, N-cyclohexyl-N-[5,7-dimethyl-2-(5-methyl-furan-2-yl)-imidazo[1,2-a]pyridin-3-yl]-acetamide] | 65 |
| CC(=O)N(c1c(-c2ccco2)nc2cc(C)cc(C)n12)C(C)(C)C [Example 145, N-tert-butyl-N-(2-furan-2-yl-5,7-dimethyl-imidazo[1,2-a]pyridin-3-yl)-acetamide] | 66 |
| Cc1ccc(-c2nc3cc(C)cc(C)n3c2NC(C)(C)CC(C)(C)C)cc1 [Example 95, (5,7-Dimethyl-2-p-tolyl-imidazo[1,2-a]-pyridin-3-yl)-(1,1,3,3-tetramethyl-butyl)-amine] | 70 |
| Cc1cc(C)n2c(NC(C)(C)CC(C)(C)C)c(-c3cccnc3)nc2c1 [Example 12, (5,7-Dimethyl-2-pyridin-3-yl-imidazo[1,2-a]-pyridin-3-yl)-(1,1,3,3-tetramethyl-butyl)-amine] | 61 |
| CC(=O)N(c1c(-c2ccc(C)cc2)nc2cc(C)ccn12)C(C)(C)CC(C)(C)C [Example 185, N-(7-methyl-2-p-tolyl-imidazo[1,2-a]pyridin-3-yl)-N-(1,1,3,3-tetramethyl-butyl)-acetamide] | 55 |
| CCCCNc1c(-c2cccc(O)c2)nc2cc(C)ccn12 [Example 55, 3-(3-Butylamino-7-methyl-imidazo[1,2-a]-pyridin-2-yl)-phenol] | 63 |
| CCCCNc1c(-c2ccccc2OC)nc2cc(C)ccn12 [Example 60, Butyl-[2-(2-methoxy-phenyl)-7-methyl-imidazo[1,2-a]pyridin-3-yl]-amine] | 52 |
